Tests used:
[1] = system: leukotriene biosynthesis; settings: oral; Prasit, et al., 1991; cited from earlier work
[2] = system: 5-Lipoxygenase From Stimulated LTB4 Formation in Human Polymorphonuclear Leukocytes; test: Inhibition of calcium ionophore-induced LTB4 formation in human polymorphonuclear leukocytes (PMNL); type: cell-based; settings: calcium ionophore 8.3 μM, 10 min at 37° C., 15 min preincubation
Method: Inhibition of leukotriene biosynthesis was evaluated in an assay involving calcium ionophore-induced LTB4 expressed in human polymorphonuclear leukocytes (PMNL). Human PMNL isolated from heparinized (20 USP units/mL) venous blood (25 mL) obtained from healthy volunteers was layered over an equal volume of Ficoll-Hypaque Mono-Poly Resolving Medium (ICN Flow, Costa Mesa, Calif.) and centrifugated at 400×g for 40 minutes at 20° C. The PMNL was collected, erythrocytes lysed and washed 2× and suspended at 1.0×10^7 cells/mL in Earle's balanced salt solution with 17 mM Earle's HEPES. Aliquots of the cell suspension were preincubated with test compounds dissolved in DMSO (final concentration <2%) for 15 minutes and stimulated with calcium ionophore (final concentration 8.3 μM) for 10 minutes at 37° C. Incubations were stopped with the addition of two volumes of ice cold methanol followed by centrifuging the cell suspensions at 4° C. for 10 minutes at 450×g. The amount of LTB4 in the methanol extract was analyzed by enzyme-linked immunoassay or by HPLC analysis.

[3] = system: leukotriene biosynthesis; test: Ionophore A-23187-Induced Rat Pleural Inflammation Model (in vivo leukotriene inhibition); settings: male rats, dosed one hour prior to intrapleural A23187 (20 μg), lavage after 30 min, eicosanoids by enzyme immunoassay
Method: Inhibition of leukotriene biosynthesis in vivo was evaluated using the Ionophore A-23187-Induced Rat Plueral Inflammation Model. Pleural inflammation was induced in male rats following the method of Rao, et al. (Rao, T. S., Currie, J. L., Shaffer, A. F., Isakson, P. C., Evaluation of 5-lipoxygenase Inhibitors, Zileuton, A78773 and ICI D-2 138 in an Ionophore (A-23187) Induced Pleural Inflammation Model in the Rat, Life Sciences, 53, 147 (1993)). Rats were dosed with experimental compounds in 0.2% methocel one hour prior to the intrapleural injection of the calcium ionophore, A23187. The rats where lightly anaesthetized with Pentrane (Abbott Laboratories) and injected intrapleurally with 0.5 ml of 2% ethanol in injectable saline (Abbott Laboratories) containing 20 μg of A23187 (Cal BioChem-Novabiochem). Thirty minutes later the animals were euthanised and the pleural cavities lavaged with ice cold saline (Abbott Laboratories). The lavage fluid was then added to ice cold methanol (final methanol concentration 30%) to lyse cells and precipitate protein. Eicosanoids were determined by enzyme immunoassay by standard methods.

With `O=C(O)CSC(CCCc1ccc(Cl)cc1)c1ccc(OCc2ccc3ccccc3n2)cc1` (centres unmarked) [((4-(4-chlorophenyl)-1-(4-(2-quinolylmethoxy)phenyl)butyl)thio)acetic acid] as the molecule, how does the “orally active leukotriene biosynthesis inhibitor (in words)” value [1] read?
The value was “orally active leukotriene biosynthesis inhibitor”.

For `O=C(O)C=NOC(c1ccc(OCc2ccc3ccccc3n2)cc1)c1ccc(OCc2ccc3ccccc3n2)cc1` [Example 1, bis(4-(2-quinolylmethoxy)phenyl)methyliminoxyacetic acid], which IC50 [2] is on record?
The IC50 was 68 nM.

What does the source list for `CC(=NOC(c1ccc(OCc2ccc3ccccc3n2)cc1)c1ccc(OCc2ccc3ccccc3n2)cc1)C(=O)O` [Example 2, 2-(bis(4-(2-quinolylmethoxy)phenyl)methyliminoxy)propionic acid]?
ED50 [3]: 2 mg/kg; IC50 [2]: 160 nM

For `CC(=NOC(c1ccc(OCc2ccc3cc(F)ccc3n2)cc1)c1ccc(OCc2ccc3cc(F)ccc3n2)cc1)C(=O)O` [Example 6, 2-(bis(4-(6-fluoro-2-quinolylmethoxy)phenyl)methyliminoxy)propionic acid], which IC50 [2] is on record?
Its IC50 is 40 nM.

What does the source list for `CC(CCC(=O)O)=NOC(c1ccc(OCc2ccc3ccccc3n2)cc1)c1ccc(OCc2ccc3ccccc3n2)cc1` [Example 7, 4-(bis(4-(2-quinolylmethoxy)phenyl)methyliminoxy)pentanoic acid]?
ED50 [3]: 1 mg/kg; IC50 [2]: 50 nM

With `CC(/C=C/C(=O)O)=NOC(c1ccc(OCc2ccc3ccccc3n2)cc1)c1ccc(OCc2ccc3ccccc3n2)cc1` [Example 8] as the molecule, how does the IC50 [2] read?
The IC50 was 30 nM.
